Key:
Assay type in all cases: functional
PC-12 [1] = experiment: Antioxidant activity against H2O2-induced cell damage in rat PC12 cells assessed as cell viability at 1 uM after 24 hrs by MTT assay (reference value: 64.34 +/- 1.02 %); settings: for viability at 1 µM: PC-12, 24 h, read-out: Activity
PC-12 [2] = experiment: Antioxidant activity against H2O2-induced cell damage in rat PC12 cells assessed as cell viability at 5 uM after 24 hrs by MTT assay (reference value: 64.34 +/- 1.02 %); settings: PC-12, 24 h, read-out: Activity
PC-12 [3] = experiment: Antioxidant activity against H2O2-induced cell damage in rat PC12 cells assessed as cell viability at 10 uM after 24 hrs by MTT assay (reference value: 64.34 +/- 1.02 %); settings: PC-12, 24 h, read-out: Activity

| Compound | viability at 1 µM (PC-12 [1]) [%] | viability at 5 µM (PC-12 [2]) [%] | viability at 10 µM (PC-12 [3]) [%] | Activity (PC-12 [1]) [%] |
| --- | --- | --- | --- | --- |
| C[C@]12CCC[C@](C)(C(=O)O)[C@@H]1CC[C@@]13CC[C@@H]([C@H](O)[C@H]21)[C@]1(C)O[C@H]31 | 68.2 | 70.8 | 72.3 | – |
| CC(=O)CCc1c(C)cc(O)c2c1C(=O)OC2(C)C | 65.4 | 68.7 | 70.2 | – |
| CC1=C2C[C@@H]3[C@H](CC[C@@]3(C)O)[C@](C)(O)C[C@H]2OC1=O | 67.5 | 72 | 76.4 | – |
| CC1=C2CC[C@](C)(O)[C@H]2CC2=C(C)C(=O)O[C@@]2(O)C1 | 82.7 | 76.8 | 74.3 | – |
| CC1=C2CC(=O)[C@@H](C)CC/C=C(\C)C[C@H]2OC1=O | 65.4 | 77.4 | 80.2 | – |
| CC1=CC(=O)C(=C(C)C)C[C@@]2(O)[C@H](C)CC[C@@H]12 | 69.5 | 68.8 | 76.2 | – |
| CC1=C2C[C@@H]3[C@](C)(CCC[C@@]3(C)O)C[C@]2(O)OC1=O | 81.2 | 80.9 | 90.1 | – |
| Cc1cc2oc(=O)c(C)c-2cc2c1CC[C@H]2C | 68.1 | 70.6 | 72.5 | – |
| VITAMIN E | – | – | – | 80.9 |
| CCO[C@]12C/C(C)=C/CC[C@@H](C)C(=O)CC1=C(C)C(=O)O2 | 77.7 | 80.9 | 85.2 | – |
| CC(C)C1=CC[C@@](C)(O)[C@@H]2CC[C@@](C)(O)[C@@H]2C1 | 69.5 | 77.9 | 77.7 | – |
| C=C[C@]1(C)C[C@@H]2OC(=O)C(C)=C2C[C@H]1C(=C)C [ISOGERMAFURENOLIDE] | 62.5 | 63.7 | 67.2 | – |
| CC1=C2C[C@]34O[C@](C)(C[C@H]2OC1=O)[C@H]3CC[C@@H]4C | 67.4 | 71.6 | 79.3 | – |
| CC1=C2C[C@H]3[C@H](CC[C@]3(C)O)[C@@](C)(O)C[C@]2(O)OC1=O [ZEDOAROLIDE B] | 76.1 | 77 | 80.7 | – |
| CC(C)=C1C[C@H]2[C@@H](CC[C@]2(C)O)[C@](C)(O)CC1=O [ZEDOARONDIOL] | 81.9 | 70.3 | 72.6 | – |
| CC1=C2C[C@H]3[C@H](CC[C@]3(C)O)[C@@](C)(O)C[C@@H]2OC1=O [ZEDOALACTONE C] | 73.1 | 77.3 | 81 | – |
| Cc1cc(=O)c(C(C)C)cc2c1CC[C@]2(C)O | 77.7 | 76.7 | 75.2 | – |
| C=C1CC[C@H]2C(C)(C)[C@@H](O)CC[C@]2(C)[C@H]1C/C=C1\CCOC1=O | 66.9 | 67.1 | 67.4 | – |
| C=C1CC[C@H]2C(C)(C)CCC[C@]2(C)[C@H]1CCC1=CC(=O)OC1 | 67.1 | 70.2 | 72.1 | – |
| C=C(C)C(=O)C[C@@]12OC(=O)C=C(C)[C@@H]1CC[C@@H]2C | 69.3 | 72.4 | 75.9 | – |
| CC1=C2CC(=O)[C@@H](C)CC/C=C(\C)C[C@@]2(O)OC1=O | 74.5 | 76.1 | 78.4 | – |
| CC1=CC(=O)[C@]23C[C@]24[C@@]1(O)CC[C@]4(C)OC3(C)C | 72.7 | 74.8 | 77.2 | – |
| CC1=CC(=O)O[C@@]2(CC(=O)C(C)C)[C@@H](C)CC[C@@H]12 | 73.4 | 83.5 | 89 | – |
| CC(C)=C1C[C@]2(O)[C@@H](CC[C@@H]2C)[C@@](C)(O)CC1=O | 66.3 | 64 | 65.2 | – |
| CC1=C2CC[C@](C)(O)[C@H]2CC2=C(C)C(=O)OC2=C1 | 82.9 | 84 | 88.7 | – |
| CC1(C)CCC[C@]2(C)[C@@H]1CC[C@](O)(CO)[C@H]2C/C=C1\CCOC1=O | 67.6 | 72.2 | 74.1 | – |
| CC1=CC(=O)C(=C(C)C)C[C@H]2[C@H]1CC[C@]2(C)O [PROCURCUMENOL] | 66.4 | 70 | 69.6 | – |
| CC1=C2C[C@@]34O[C@]2(OC1=O)[C@H](O)[C@](C)(O)[C@@H]3CC[C@H]4C | 73.7 | 77.7 | 79.8 | – |
